Measurements: paper PMC5573954 (Hippocampus, 2017)
Like-named read-outs stand apart in the source and are kept apart here.

How the values were obtained:
hM4 = biological target: T1, hM4 (Homo sapiens, UniProt P08173); assay: GloSensor cAMP functional assay, HEK293 cells stably expressing hM4; details: for selectivity for hM4 over hM2 (fold shift of PAM EC50): hM2 EC50 versus hM4 EC50, PAM mode
T1 sequence (P08173 1-479): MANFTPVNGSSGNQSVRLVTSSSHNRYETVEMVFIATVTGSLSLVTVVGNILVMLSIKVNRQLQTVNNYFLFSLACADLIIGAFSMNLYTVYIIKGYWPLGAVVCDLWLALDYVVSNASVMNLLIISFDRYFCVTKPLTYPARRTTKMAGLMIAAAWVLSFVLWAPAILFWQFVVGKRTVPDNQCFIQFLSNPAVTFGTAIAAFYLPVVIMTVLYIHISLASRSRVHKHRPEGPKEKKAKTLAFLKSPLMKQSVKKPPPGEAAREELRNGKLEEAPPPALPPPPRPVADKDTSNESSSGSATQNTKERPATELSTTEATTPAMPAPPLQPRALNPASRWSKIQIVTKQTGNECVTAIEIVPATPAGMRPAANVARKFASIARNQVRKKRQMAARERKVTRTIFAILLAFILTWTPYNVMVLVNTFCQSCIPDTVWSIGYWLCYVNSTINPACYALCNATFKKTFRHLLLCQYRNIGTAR

hM3 = hM3 (Homo sapiens, UniProt P20309); assay: FLIPR Ca2+ functional assay, CHO K1 cells stably expressing hM3; type: cell-based
rat M4 receptor (rM4) = biological target: T2, rat M4 receptor (rM4) (Rattus norvegicus, UniProt P08485); assay: GloSensor cAMP functional assay, HEK293 cells stably expressing rM4
T2 sequence (P08485 1-478): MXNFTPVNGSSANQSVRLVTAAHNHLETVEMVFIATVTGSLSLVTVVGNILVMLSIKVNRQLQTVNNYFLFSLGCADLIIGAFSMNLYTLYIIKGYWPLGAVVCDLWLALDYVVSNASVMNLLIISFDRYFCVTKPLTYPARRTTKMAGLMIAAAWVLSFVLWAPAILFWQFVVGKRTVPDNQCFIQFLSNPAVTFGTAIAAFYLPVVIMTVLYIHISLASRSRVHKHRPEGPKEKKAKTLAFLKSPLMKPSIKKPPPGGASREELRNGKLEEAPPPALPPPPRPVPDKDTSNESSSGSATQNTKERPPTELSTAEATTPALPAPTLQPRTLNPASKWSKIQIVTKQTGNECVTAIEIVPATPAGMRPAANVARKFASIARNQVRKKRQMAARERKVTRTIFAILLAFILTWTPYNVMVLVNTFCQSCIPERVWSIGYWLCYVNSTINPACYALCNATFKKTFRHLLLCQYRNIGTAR

hM5 = biological target: T3, hM5 (Homo sapiens, UniProt P08912); assay: FLIPR Ca2+ functional assay, CHO K1 cells stably expressing hM5; type: cell-based
T3 sequence (P08912 1-532): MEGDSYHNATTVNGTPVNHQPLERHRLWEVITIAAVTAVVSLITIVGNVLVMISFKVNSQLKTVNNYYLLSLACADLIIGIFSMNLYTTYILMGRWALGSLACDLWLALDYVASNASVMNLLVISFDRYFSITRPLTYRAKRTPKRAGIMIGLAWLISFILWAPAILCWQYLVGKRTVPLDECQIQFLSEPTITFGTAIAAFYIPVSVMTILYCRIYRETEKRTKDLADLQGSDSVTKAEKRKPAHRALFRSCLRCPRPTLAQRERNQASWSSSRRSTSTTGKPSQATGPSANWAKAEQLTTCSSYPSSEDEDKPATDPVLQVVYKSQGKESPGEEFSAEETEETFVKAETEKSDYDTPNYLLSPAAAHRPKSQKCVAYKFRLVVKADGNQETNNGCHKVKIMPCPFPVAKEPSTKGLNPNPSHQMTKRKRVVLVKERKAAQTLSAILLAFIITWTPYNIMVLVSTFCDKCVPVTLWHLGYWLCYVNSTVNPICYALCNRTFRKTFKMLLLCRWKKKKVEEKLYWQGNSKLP

[1] = test system: TA‐evoked EPSCs in CA1 pyramidal neurons; type: cell-based, rat
[2] = test system: SC‐evoked EPSCs in CA1 pyramidal neurons; type: cell-based, rat
hM1 = biological target: T4, hM1 (Homo sapiens, UniProt P11229); assay: FLIPR Ca2+ functional assay, CHO K1 cells stably expressing hM1; type: cell-based
T4 sequence (P11229 1-460): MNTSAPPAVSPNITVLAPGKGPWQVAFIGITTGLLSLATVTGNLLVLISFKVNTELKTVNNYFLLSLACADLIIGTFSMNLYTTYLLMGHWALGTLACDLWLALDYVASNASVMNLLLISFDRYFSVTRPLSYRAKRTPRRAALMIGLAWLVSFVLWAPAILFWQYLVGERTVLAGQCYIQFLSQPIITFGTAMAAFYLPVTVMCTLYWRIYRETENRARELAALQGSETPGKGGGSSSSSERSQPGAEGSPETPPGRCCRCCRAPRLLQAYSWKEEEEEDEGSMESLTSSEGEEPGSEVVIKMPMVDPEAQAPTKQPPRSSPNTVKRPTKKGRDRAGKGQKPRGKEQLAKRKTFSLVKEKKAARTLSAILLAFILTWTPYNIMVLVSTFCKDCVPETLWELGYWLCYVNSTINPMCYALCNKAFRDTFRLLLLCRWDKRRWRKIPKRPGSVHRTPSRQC

CA1 pyramidal neurons = assay: Whole‐cell current step evoked firing of CA1 pyramidal neurons; type: cell-based, rat
[3] = test system: putative PV+ CA1 interneurons; assay: Whole‐cell current step evoked firing of putative PV+ CA1 interneurons; type: cell-based, rat; details: 300 nM; n = 4; p = 0.0275
[4] = test system: spontaneous firing rates of CA1 neurons
hM2 = biological target: T5, hM2 (Homo sapiens, UniProt P08172); assay: GloSensor cAMP functional assay, HEK293 cells stably expressing hM2; type: cell-based
T5 sequence (P08172 1-466): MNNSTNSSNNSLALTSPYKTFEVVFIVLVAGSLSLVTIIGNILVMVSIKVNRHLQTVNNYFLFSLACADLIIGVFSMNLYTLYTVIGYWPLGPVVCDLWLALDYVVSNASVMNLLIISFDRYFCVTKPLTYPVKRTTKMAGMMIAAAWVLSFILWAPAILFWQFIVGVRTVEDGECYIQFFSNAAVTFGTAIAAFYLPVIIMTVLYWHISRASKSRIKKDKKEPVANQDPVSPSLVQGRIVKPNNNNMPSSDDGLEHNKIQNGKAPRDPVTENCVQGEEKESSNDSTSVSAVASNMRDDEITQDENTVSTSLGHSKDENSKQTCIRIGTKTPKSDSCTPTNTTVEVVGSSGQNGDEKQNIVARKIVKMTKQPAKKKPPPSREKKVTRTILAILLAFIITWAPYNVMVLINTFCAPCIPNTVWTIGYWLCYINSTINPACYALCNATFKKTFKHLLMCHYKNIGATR

rat M4 receptor = details: ref Chan et al., 2008; cited from earlier work
[5] = biological target: beta‐2 adrenergic receptors (Homo sapiens, UniProt P07550); assay: Nonmuscarinic off-target functional activity: beta-2 adrenergic antagonism; type: cell-based
5HT2b receptors = 5HT2b receptors (Homo sapiens, UniProt P41595); assay: Nonmuscarinic off-target functional activity: 5HT2b antagonism; type: cell-based
[6] = test system: SC‐evoked synaptic field potentials in CA1 of hippocampal slices; assay: Extracellular field potentials evoked by SC stimulation, hippocampal slices; details: from fitted dose–response curve, Figure 2a
[7] = 5 μM, end of recordings with PT‐3763, mean ± SEM

Sequence of hM3 (P20309 whole entry): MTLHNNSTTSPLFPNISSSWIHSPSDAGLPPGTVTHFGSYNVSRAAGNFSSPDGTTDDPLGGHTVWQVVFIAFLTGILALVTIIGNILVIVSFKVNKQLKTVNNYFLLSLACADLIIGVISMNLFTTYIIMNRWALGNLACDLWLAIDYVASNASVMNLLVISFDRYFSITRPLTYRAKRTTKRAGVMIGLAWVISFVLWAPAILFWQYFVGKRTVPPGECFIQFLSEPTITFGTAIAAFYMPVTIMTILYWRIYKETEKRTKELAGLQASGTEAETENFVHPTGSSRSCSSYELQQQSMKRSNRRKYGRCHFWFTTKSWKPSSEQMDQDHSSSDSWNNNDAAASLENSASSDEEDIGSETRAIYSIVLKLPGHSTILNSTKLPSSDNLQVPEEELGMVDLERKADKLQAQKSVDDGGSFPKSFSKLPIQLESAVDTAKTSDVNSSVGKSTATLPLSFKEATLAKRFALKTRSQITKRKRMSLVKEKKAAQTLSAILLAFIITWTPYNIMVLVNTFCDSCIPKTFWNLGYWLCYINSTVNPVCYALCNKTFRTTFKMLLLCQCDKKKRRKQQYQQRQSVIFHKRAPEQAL
Sequence of 5HT2b receptors (P41595 whole entry): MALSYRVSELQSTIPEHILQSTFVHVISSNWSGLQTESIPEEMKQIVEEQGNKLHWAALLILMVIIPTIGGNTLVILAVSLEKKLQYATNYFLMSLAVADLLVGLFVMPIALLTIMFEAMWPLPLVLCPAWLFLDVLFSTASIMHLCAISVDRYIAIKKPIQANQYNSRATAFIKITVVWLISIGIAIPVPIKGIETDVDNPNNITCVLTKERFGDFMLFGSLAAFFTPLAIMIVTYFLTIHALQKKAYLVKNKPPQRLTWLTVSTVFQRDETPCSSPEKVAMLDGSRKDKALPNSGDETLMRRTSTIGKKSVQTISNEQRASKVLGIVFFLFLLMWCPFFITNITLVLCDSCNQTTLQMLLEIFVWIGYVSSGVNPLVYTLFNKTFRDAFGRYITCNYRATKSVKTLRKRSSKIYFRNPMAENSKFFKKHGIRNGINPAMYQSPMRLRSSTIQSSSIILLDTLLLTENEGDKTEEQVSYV
Sequence of beta‐2 adrenergic receptors (P07550 whole entry): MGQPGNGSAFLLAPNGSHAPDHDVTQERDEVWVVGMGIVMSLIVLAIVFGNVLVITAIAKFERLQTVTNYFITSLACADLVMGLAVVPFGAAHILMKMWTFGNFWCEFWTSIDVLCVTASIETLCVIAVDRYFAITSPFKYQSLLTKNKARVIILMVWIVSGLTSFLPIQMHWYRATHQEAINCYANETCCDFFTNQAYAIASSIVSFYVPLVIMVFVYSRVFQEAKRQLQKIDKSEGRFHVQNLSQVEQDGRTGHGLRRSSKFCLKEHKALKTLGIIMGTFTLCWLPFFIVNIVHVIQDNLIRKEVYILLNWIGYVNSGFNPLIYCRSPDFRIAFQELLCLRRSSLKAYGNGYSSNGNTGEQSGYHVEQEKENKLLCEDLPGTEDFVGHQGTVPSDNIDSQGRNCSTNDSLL

CC(=O)OCC[N+](C)(C)C [ACh, acetylcholine]
ACh EC20 (hM4; hM4 cell line): 0.015 µM | ACh EC20 (hM3; hM3 cell line): 0.0008 µM | ACh EC20 (rat M4 receptor (rM4); rM4 cell line): 0.0008 µM | ACh EC20 (hM5; hM5 cell line): 0.002 µM

N#Cc1cc2[nH]c(=O)c(=O)[nH]c2cc1[N+](=O)[O-] [CNQX]
CNQX‐induced suppression of TA‐evoked responses [1, 7]: 79.4 ± 4.8% | CNQX‐induced suppression of SC‐evoked responses [2, 7]: 85.2 ± 4.1%

Cc1cc(F)c2[nH]c(=O)n(C3CCN(C4CCOCC4)CC3)c2c1 [GSK1034702]
effect on amplitude, slope, or PPR of EPSCs evoked by TA stimulation ([1]; 300 nM, 100 μM picrotoxin): no significant effect | EC50 (hM1): 0.027 µM | EC50 (hM4): 1.43 µM | spike frequency accommodation (CA1 pyramidal neurons; 300 nM, 200 pA current injection): significantly reduced | number of spikes evoked in response to a 200 pA injected current step (CA1 pyramidal neurons; 300 nM, p = 0.012 vs baseline): increase | firing rates of interneurons following current step [3]: increased firing rates | upper z‐score asymptote of normalized spontaneous firing rates ([4]; GSK1034702 data set with VU0255035 reversal): 56.3 ± 11.9 | upper z‐score asymptote of normalized spontaneous firing rates ([4]; GSK1034702 data set with pirenzipine reversal): 86.9 ± 13.6 | effect on amplitude, slope, or PPR of EPSCs evoked by SC stimulation ([2]; 300 nM, 100 μM picrotoxin): no significant effect

COc1nc2sc(C(=O)NC3CC3)c(N)c2c(C)c1Cl [LY2033298]
EC50 (hM2; hM2, PAM mode, in the presence of an EC20 of ACh (3 nM), isoproterenol 50 nM, brackets 95% CI): 3.28 µM | EC50 (hM4; hM4, PAM mode, in the presence of an EC20 of ACh (15 nM), isoproterenol 50 nM, brackets 95% CI): 0.041 µM | potency at the rat M4 receptor compared with the human (rat M4 receptor): much weaker

Cc1nnc2sc(C(=O)NC3CN(c4cccnc4)C3)c(N)c2c1C [PT‐1148, 5‐amino‐3,4‐dimethyl‐N‐(1‐(pyridin‐3‐yl)azetidin‐3‐yl)thieno[2,3‐c]pyridazine‐6‐carboxamide]
selectivity for hM4 over hM2 (fold shift of PAM EC50) (hM4): 536 fold | upper z‐score asymptote of normalized spontaneous firing rates ([4]; in the presence of 20 nM oxotremorine and 1 μM VU0255035, not significant (p = 0.875)): 3.77 ± 23.9

Cc1cc(C)c2c(N)c(C(=O)NC3CN(c4cccnc4)C3)sc2n1 [PT‐3763, 3‐amino‐4,6‐dimethyl‐N‐(1‐(pyridin‐3‐yl)azetidin‐3‐yl)thieno[2,3‐b]pyridine‐2‐carboxamide]
selectivity for hM4 over hM2 (fold shift of PAM EC50) (hM4): 28 fold | IC50 [5]: 2.99 µM

CCOC(=O)N1CCCC(N2CCC(c3cccnc3OC)CC2)CC1 (stereo not shown) [PT‐6950, ethyl 4‐(4‐(2‐methoxypyridin‐3‐yl)piperidin‐1‐yl)azepane‐1‐carboxylate]
EC50 (hM1): 0.312 µM | EC50 (hM2): 2.88 µM | EC50 (hM3): > 10 µM | EC50 (rat M4 receptor (rM4)): 0.00262 µM | IC50 (5HT2b receptors): 1.26 µM | EC50 (hM5): > 10 µM | upper z‐score asymptote of normalized spontaneous firing rates ([4]; compound alone, mean ± SEM): 12.0 ± 16.7

O=C(CCNS(=O)(=O)c1cccc2nsnc12)N1CCN(c2ccncc2)CC1 [VU0255035]
effect on GSK1034702 induced increase in CA1 firing rates ([4]; 3 μM): reversed | effect on oxotremorine induced increase in spontaneous firing rates ([4]; 3 μM): partially reversed

O=C1CCCN1CC#CCN1CCCC1 [oxotremorine]
EC20 of oxotremorine for reduction of SC‐evoked field potentials [6]: 0.02 µM | upper z‐score asymptote of normalized spontaneous firing rates ([4]; compound alone, mean ± SEM): 108.2 ± 6.3

CN1CCN(CC(=O)N2c3ccccc3C(=O)Nc3cccnc32)CC1 [pirenzepine]
effect on GSK1034702 induced increase in evoked spikes (CA1 pyramidal neurons; 3 μM): reversed | effect on GSK1034702 induced reduction of spike frequency accommodation (CA1 pyramidal neurons; 3 μM): similarly reversed | effect on GSK1034702 induced increase in CA1 firing rates ([4]; 3 μM): reversed | effect on M4 PAM induced reduction of SC‐evoked EPSC amplitude and slope ([2]; 3 μM, applied after PTX + OXO + M4 PAM): reversed
